Values of other authors as cited in article PMC6105163, “Abaloparatide Exerts Bone Anabolic Effects with Less Stimulation of Bone Resorption-Related Factors: A Comparison with Teriparatide” (Calcified Tissue International, 2018).
Ends that are not written are not given here.

Experiments:
bone mass = conditions: cited from earlier work; for effect of continuous infusion: in vivo; for bone mass, intermittent administration: ref [2], [3]
Description: Parathyroid hormone (PTH) and PTH-related protein (PTHrP) have a common G protein-coupled receptor, PTH1R, which plays a pivotal role in bone turnover and calcium homeostasis.

bone turnover = conditions: preclinical study, ref [25], cited from earlier work
Description: (§1) There is another possibility that the two peptides could show the different activity on protein kinase C (PKC). PKC is the downstream signal of PTH1R and is involved in the stimulation of bone resorption-related factors and bone catabolism. In fact, ostabolin, an amidated form of human PTH(1–31), differs from PTH(1–34) in PKC activation.

cAMP and PKC = conditions: ref [24]; cited from earlier work
Description: as §1

Substance | effect of continuous infusion (bone mass) | bone mass, intermittent administration (bone mass) | bone resorption (bone turnover; vs PTH(1–34)) | bone formation (bone turnover) | cAMP accumulation and PKC activation (cAMP and PKC)
PTH: Parathyroid hormone | caused bone loss and hypercalcemia | increased bone mass | – | – | –
PTHrP: PTH-related protein | caused bone loss and hypercalcemia | increased bone mass | – | – | –
ostabolin: an amidated form of human PTH(1–31) (SVSEIQLMHNLGKHLNSMERVEWLRKKLQDV-NH2; UniProt P01270 32-62, looked up, fragment) | – | – | less effect on bone resorption than PTH(1–34) | stimulated bone formation similar to PTH(1–34) | cAMP accumulation without activating PKC
